What was measured:
Assay type in all cases: in vivo
[1] = tested on: Polygonum convolvulus (POLCO), Brachiaria plantaginea (BRAPL), Commelina benghalensis (COMBE), Digitaria sanguinalis (DIGSA); assay: Glasshouse herbicide efficacy of mesotrione with adjuvants (Example 6); details: mesotrione SC, mean over 30 and 60 g/ha, three replicates, four weed species; 21 days after application; Adjuvant 2 0.2% v/v, Tween 20 0.5% v/v; 200 l/ha
Description: (§1) Mesotrione was added to the spray tank as a standard SC (suspension concentrate) formulation.
The spray tests were also carried out using mesotrione in conjunction with Adjuvant 2 or the well-known adjuvant Tween® 20. […] The four weed species were Polygonum convolvulus (POLCO), Brachiaria plantaginea (BRAPL), Commelina benghalensis (COMBE) and Digitaria sanguinalis (DIGSA). Each spray test was replicated three times. […] The results shown in Table 6 below are mean averages over the two rates of mesotrione, the three replicates and the four weed species.

[2] = tested on: Polygonum convolvulus (POLCO), Brachiaria plantaginea (BRAPL), Commelina benghalensis (COMBE), Digitaria sanguinalis (DIGSA); assay: Glasshouse herbicide efficacy of mesotrione with adjuvants (Example 2); details: mesotrione SC, mean over 30 and 60 g/ha, three replicates, four weed species; 21 days after application; adjuvants 0.2% v/v, Tween 20 0.5% v/v; 200 l/ha
Description: as §1
The four weed species were Polygonum convolvulus (POLCO; growth stage 13-15), Brachiaria plantaginea (BRAPL; growth stage 13-21), Commelina benghalensis (COMBE; growth stage 12-13) and Digitaria sanguinalis (DIGSA; growth stage 13-14).
Each spray test was replicated three times. […] The results shown in Table 2 below are mean averages over the two rates of mesotrione, the three replicates and the four weed species.

[3] = tested on: Polygonum convolvulus (POLCO), Brachiaria plantaginea (BRAPL), Commelina benghalensis (COMBE), Digitaria sanguinalis (DIGSA); assay: Glasshouse herbicide efficacy of mesotrione with adjuvants (Example 9); details: mesotrione SC, mean over 30 and 60 g/ha, three replicates, four weed species; 21 days after application; adjuvants 0.2% v/v, Tween 20 0.5% v/v; 200 l/ha
Description: The efficacy of Adjuvant 5 as an adjuvant for the herbicide mesotrione was tested in a glasshouse against four weed species. Mesotrione was added to the spray tank as a standard SC (suspension concentrate) formulation.
The spray tests were also carried out using mesotrione in conjunction with Adjuvant 5, Adjuvant 6 or the well-known adjuvant Tween® 20. […] The four weed species were Polygonum convolvulus (POLCO), Brachiaria plantaginea (BRAPL), Commelina benghalensis (COMBE) and Digitaria sanguinalis (DIGSA).
Each spray test was replicated three times. […] The results shown in Table 9 below are mean averages over the two rates of mesotrione, the three replicates and the four weed species.

[4] = tested on: Alopecurus myosuroides (ALOMY), Avena fatua (AVEFA), Lolium perenne (LOLPE), Setaria viridis (SETVI); assay: Glasshouse herbicide efficacy of pinoxaden with adjuvants (Example 7); details: pinoxaden EC, mean over 7.5 and 15 g/ha, three replicates, four weed species; 21 days after application; adjuvants 0.2% v/v; 200 l/ha
Description: (§2) Pinoxaden was added to the spray tank as a standard EC (emulsifiable concentrate) formulation.
The spray tests were also carried out using pinoxaden in conjunction with Adjuvant 2 or the standard adjuvant tris(2-ethylhexyl) phosphate. […] The weed species were Alopecurus myosuroides (ALOMY), Avena fatua (AVEFA); Lolium perenne (LOLPE) and Setaria viridis (SETVI).
Each spray test was replicated three times. […] The results shown in Table 7 below are mean averages over the two rates of pinoxaden, the three replicates and the four weed species.

[5] = tested on: Alopecurus myosuroides (ALOMY), Avena fatua (AVEFA), Lolium perenne (LOLPE), Setaria viridis (SETVI); assay: Glasshouse herbicide efficacy of pinoxaden with adjuvants (Example 3); details: pinoxaden EC, mean over 7.5 and 15 g/ha, three replicates, four weed species; 21 days after application; adjuvants 0.2% v/v; 200 l/ha
Description: as §2
Each spray test was replicated three times. […] The results shown in Table 3 below are mean averages over the two rates of pinoxaden, the three replicates and the four weed species.

[6] = tested on: Alopecurus myosuroides (ALOMY), Avena fatua (AVEFA), Lolium perenne (LOLPE), Setaria viridis (SETVI); assay: Glasshouse herbicide efficacy of pinoxaden with adjuvants (Example 10); details: pinoxaden EC, mean over 7.5 and 15 g/ha, three replicates, four weed species; 21 days after application; adjuvants 0.2% v/v; 200 l/ha
Description: The efficacy of Adjuvant 5 as an adjuvant for the herbicide pinoxaden was tested in a glasshouse against four weed species. Pinoxaden was added to the spray tank as a standard EC (emulsifiable concentrate) formulation.
The spray tests were also carried out using pinoxaden in conjunction with Adjuvant 5, Adjuvant 6 or the standard adjuvant tris(2-ethylhexyl) phosphate. […] The weed species were Alopecurus myosuroides (ALOMY), Avena fatua (AVEFA), Lolium perenne (LOLPE) and Setaria viridis (SETVI). Each spray test was replicated three times. […] The results shown in Table 10 below are mean averages over the two rates of pinoxaden, the three replicates and the four weed species.

[7] = tested on: Abutilon theophrasti (ABUTH), Chenopodium album (CHEAL), Digitaria sanguinalis (DIGSA), Setaria viridis (SETVI); assay: Glasshouse herbicide efficacy of nicosulfuron with adjuvants (Example 5); details: nicosulfuron WG, mean over 30 and 60 g/ha, three replicates, four weed species; 21 days after application; Adjuvant 2 0.2% v/v, Atplus 411F 0.5% v/v; 200 l/ha
Description: (§3) Nicosulfuron was added to the spray tank as a standard WG (water dispersible granule) formulation.
The spray tests were also carried out using nicosulfuron in conjunction with Adjuvant 2 or the commercially available tank-mix adjuvant, Atplus 411F®. […] The weed species were Abutilon theophrasti (ABUTH), Chenopodium album (CHEAL), Digitaria sanguinalis (DIGSA) and Setaria viridis (SETVI).
Each spray test was replicated three times. […] The results shown in Table 5 below are mean averages over the two rates of nicosulfuron, the three replicates and the four weed species.

[8] = tested on: Abutilon theophrasti (ABUTH), Chenopodium album (CHEAL), Digitaria sanguinalis (DIGSA), Setaria viridis (SETVI); assay: Glasshouse herbicide efficacy of nicosulfuron with adjuvants (Example 1); details: nicosulfuron WG, mean over 30 and 60 g/ha, three replicates, four weed species; 21 days after application; adjuvants 0.2% v/v, Atplus 411F 0.5% v/v; 200 l/ha
Description: as §3
Each spray test was replicated three times. […] The results shown in Table 1 below are mean averages over the two rates of nicosulfuron, the three replicates and the four weed species.

In the case of CS(=O)(=O)c1ccc(C(=O)C2C(=O)CCCC2=O)c([N+](=O)[O-])c1 [Mesotrione, mesotrione], the “Mean across species % phytotoxicity (mean percentage kill, leaf area killed)” value [1] is reported as 17.8%, the “Mean across species % phytotoxicity (mean percentage kill, leaf area killed)” value [2] is reported as 25.6% and the “Mean across species % phytotoxicity (mean percentage kill, leaf area killed)” value [3] is reported as 27.5%.
CCc1cc(C)cc(CC)c1-c1c(OC(=O)C(C)(C)C)n2n(c1=O)CCOCC2 [Pinoxaden, pinoxaden] was tested, and the “Mean across species % phytotoxicity (mean percentage kill, leaf area killed)” value [4] was 3.4%, the “Mean across species % phytotoxicity (mean percentage kill, leaf area killed)” value [5] was 3.6% and the “Mean across species % phytotoxicity (mean percentage kill, leaf area killed)” value [6] was 7.5%.
COc1cc(OC)nc(NC(=O)NS(=O)(=O)c2ncccc2C(=O)N(C)C)n1 [Nicosulfuron, nicosulfuron] was tested, and the “Mean across species % phytotoxicity (mean percentage kill, leaf area killed)” value [7] was 64.5% and the “Mean across species % phytotoxicity (mean percentage kill, leaf area killed)” value [8] was 34.4%.
